From article PMC12752606, “METTL10‐Mediated PIAS3 Methylation Links Purine Metabolism to Gastric Cancer Progression” (Advanced Science, 2025)

What was measured:
METTL10 = target: T1, METTL10 (Homo sapiens, UniProt Q5JPI9); assay: MTase-Glo in vitro methylation assay, METTL10-mediated PIAS3 methylation; type: biochemical
T1 construct: His; made in house; host or cells: E. coli BL21
Description: For the in vitro methylation assay, His‐METTL10 (1 µg) was incubated with recombinant human Histone H4 protein (20 ng; Abcam, ab198115) or GST‐PIAS3 (100 ng) of in methylation reaction buffer (50 mM Tris‐HCl (pH 8.0), 20 mM KCl, 5 mM DTT, 4 mM EDTA) containing 20 µM S‐(5′‐adenosyl)‐L‐methionine chloride dihydrochloride (SAM) at 37 °C for 1 h. The reaction was terminated by boiling the samples in SDS‐PAGE loading buffer, and the products were analyzed by immunoblotting.
To identify METTL10 inhibitors, an in‐silico screening was first conducted on an in‐house compound library comprising approximately 6000 structurally diverse molecules. Molecular docking simulations with the METTL10 protein identified 111 candidate compounds for further analysis. The methyltransferase activity of these candidates was assessed using the MTase‐Glo Methyltransferase Assay (Promega, V7601) according to the manufacturer's protocol. Briefly, the candidate compounds were preincubated with His‐METTL10 protein (1 µg) at 37 °C for 1 h in a methylation reaction buffer (50 mM Tris‐HCl (pH 8.0), 20 mM KCl, 5 mM DTT, 4 mM EDTA, and 20 µM SAM), followed by the addition of either the Histone H4 or PIAS3 peptide substrate for an additional 1 h. The reaction was then subjected to MTase‐Glo reagent buffer for 30 min, followed by MTase‐Glo detection buffer for another 30 min. Luminescence was measured using a luminometer (Promega), and IC50 values were calculated using GraphPad Prism 8 software.

[1] = system: gastric tumors of Cldn18-AT mice; assay: Cldn18-AT advanced gastric cancer mouse model; type: in vivo; settings: 40 mg/kg/day i.p., 28 days
Description: For the subcutaneous tumor model, 5 × 10⁶ MKN45 cells suspended in 100 µL of sterile PBS were injected subcutaneously into the flanks of BALB/c nude mice. When tumor volumes reached approximately 50 mm^3, mice were randomized into three groups (Vehicle control, LZQ‐02‐023‐01 at 20 mg/kg or 40 mg/kg, n = 10 per group). All treatments were administered via intraperitoneal injection once daily for 14 consecutive days. Tumor volumes were measured every 2 days using calipers and calculated using the formula: volume = [length × (width[2])]/2. Mice were sacrificed on day 24 for endpoint analyses. For genetically engineered mouse models (GEMMs), 25‐week‐old K19‐C2mE mice were randomized into Vehicle control (n = 8) and LZQ‐02‐023‐01 treatment (40 mg/kg, n = 8) groups. Both groups received daily intraperitoneal injections for 28 consecutive days. Similarly, 8‐week‐old Cldn18‐AT mice were induced with tamoxifen (100 mg/kg, T5648, Sigma) and, 2 weeks post‐induction, randomized into Vehicle (n = 6) and LZQ‐02‐023‐01 (40 mg/kg, n = 6) treatment groups. Treatments were administered daily via intraperitoneal injection for 28 days.
Paraffin sections were initially placed in an oven at 65 °C for 30 min to melt the paraffin. The slides were then immersed in two consecutive xylene baths for 10 min each to dewax the tissue, followed by hydration through a series of graded ethanol solutions. […]

G9A = G9A (Homo sapiens, UniProt Q96KQ7); assay: Off-target methyltransferase profiling (MTase-Glo); type: biochemical
G9A, sequence (Q96KQ7 whole entry, species assumed): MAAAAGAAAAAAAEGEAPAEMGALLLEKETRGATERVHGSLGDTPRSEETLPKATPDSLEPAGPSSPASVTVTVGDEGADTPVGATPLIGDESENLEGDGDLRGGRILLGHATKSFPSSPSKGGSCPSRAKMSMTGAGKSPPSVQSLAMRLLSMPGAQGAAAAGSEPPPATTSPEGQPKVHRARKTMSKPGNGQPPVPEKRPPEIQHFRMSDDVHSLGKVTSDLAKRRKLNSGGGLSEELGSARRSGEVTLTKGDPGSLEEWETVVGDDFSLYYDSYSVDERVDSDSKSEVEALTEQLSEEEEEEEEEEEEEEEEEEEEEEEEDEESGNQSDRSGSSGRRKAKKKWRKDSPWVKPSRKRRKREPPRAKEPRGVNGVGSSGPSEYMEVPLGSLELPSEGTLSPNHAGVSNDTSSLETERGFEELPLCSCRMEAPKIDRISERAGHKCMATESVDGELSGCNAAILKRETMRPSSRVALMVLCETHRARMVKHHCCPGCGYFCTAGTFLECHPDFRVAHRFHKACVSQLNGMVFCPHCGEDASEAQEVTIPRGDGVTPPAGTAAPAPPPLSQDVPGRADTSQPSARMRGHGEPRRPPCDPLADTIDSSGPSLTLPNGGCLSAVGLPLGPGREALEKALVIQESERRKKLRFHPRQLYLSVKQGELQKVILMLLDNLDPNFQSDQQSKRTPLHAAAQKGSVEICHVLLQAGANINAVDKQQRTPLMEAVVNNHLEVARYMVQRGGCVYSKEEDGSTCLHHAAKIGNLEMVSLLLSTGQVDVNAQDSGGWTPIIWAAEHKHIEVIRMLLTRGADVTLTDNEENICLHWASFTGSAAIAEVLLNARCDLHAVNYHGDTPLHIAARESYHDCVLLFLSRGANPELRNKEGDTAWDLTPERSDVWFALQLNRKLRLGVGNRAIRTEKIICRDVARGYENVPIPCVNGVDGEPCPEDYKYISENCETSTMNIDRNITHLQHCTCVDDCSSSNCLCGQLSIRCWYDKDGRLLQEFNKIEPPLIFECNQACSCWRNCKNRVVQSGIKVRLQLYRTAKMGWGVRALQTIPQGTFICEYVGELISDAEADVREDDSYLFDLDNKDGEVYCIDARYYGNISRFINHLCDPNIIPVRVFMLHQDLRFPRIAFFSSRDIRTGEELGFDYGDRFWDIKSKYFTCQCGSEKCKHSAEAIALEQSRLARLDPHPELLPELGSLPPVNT
Description: (§1) To evaluate the off‐target effects of LZQ‐02‐023‐01 on methyltransferase activity, a panel of enzymes was assessed using the MTase‐Glo Methyltransferase Assay (Promega), following the manufacturer's instructions. The assay was performed by ICE Bioscience Inc. Briefly, LZQ‐02‐023‐01 was serially diluted 4‐fold in DMSO to generate a 10‐point concentration gradient, and the resulting solutions were dispensed into 384‐well white assay plates using an Echo acoustic liquid handler (Labcyte). Plates were centrifuged at 1000 rpm for 1 min to ensure even compound distribution. Following a 10‐min preincubation at 25 °C, 2 µL of a substrate solution containing S‐adenosylmethionine (SAM) and the specific methyltransferase substrate (Table S7, Supporting Information) was added to each well. After a brief centrifugation, plates were incubated at 25 °C for 180 min to allow the enzymatic methylation reaction to proceed. Subsequently, 1 µL of MTase‐Glo reagent was added, followed by centrifugation and incubation at 25 °C for 45 min. Then, 5 µL of MTase‐Glo detection solution was introduced into each well, and the plates were incubated for an additional 45 min at 25 °C after centrifugation.
(§2) Luminescence signals were directly proportional to methyltransferase activity, were recorded using a microplate reader (BMG LABTECH). Percent inhibition was calculated by normalizing luminescence intensities of compound‐treated wells to DMSO‐treated controls, and IC50 values were calculated using GraphPad Prism 8 software.

EZH2 [A738T] = EZH2 [A738T] (Homo sapiens, UniProt Q15910, A733T); assay: Off-target methyltransferase profiling (MTase-Glo); type: biochemical
EZH2 [A738T], sequence (Q15910 1-751 isoform Q15910-2 A738T): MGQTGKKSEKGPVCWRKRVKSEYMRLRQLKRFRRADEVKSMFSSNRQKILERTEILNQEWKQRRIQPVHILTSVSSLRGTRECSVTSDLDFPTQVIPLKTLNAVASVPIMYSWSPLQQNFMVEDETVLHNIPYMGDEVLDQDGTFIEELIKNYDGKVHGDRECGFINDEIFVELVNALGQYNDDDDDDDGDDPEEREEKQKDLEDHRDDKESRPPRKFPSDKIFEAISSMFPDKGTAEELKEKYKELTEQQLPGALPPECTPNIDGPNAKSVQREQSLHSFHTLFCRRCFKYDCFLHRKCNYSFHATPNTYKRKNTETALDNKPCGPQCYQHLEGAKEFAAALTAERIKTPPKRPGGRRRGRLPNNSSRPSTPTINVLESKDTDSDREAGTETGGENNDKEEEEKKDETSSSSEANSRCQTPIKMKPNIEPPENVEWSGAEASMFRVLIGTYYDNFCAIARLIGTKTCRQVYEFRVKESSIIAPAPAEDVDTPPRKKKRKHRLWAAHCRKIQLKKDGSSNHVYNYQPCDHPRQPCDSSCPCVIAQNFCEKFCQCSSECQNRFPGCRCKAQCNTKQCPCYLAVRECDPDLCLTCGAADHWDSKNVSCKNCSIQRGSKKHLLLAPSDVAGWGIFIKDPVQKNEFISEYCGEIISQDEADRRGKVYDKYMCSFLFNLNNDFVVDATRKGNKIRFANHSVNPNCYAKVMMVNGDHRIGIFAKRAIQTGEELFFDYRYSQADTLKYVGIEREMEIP
EZH2 [A738T], sequence (O75530 whole entry partner): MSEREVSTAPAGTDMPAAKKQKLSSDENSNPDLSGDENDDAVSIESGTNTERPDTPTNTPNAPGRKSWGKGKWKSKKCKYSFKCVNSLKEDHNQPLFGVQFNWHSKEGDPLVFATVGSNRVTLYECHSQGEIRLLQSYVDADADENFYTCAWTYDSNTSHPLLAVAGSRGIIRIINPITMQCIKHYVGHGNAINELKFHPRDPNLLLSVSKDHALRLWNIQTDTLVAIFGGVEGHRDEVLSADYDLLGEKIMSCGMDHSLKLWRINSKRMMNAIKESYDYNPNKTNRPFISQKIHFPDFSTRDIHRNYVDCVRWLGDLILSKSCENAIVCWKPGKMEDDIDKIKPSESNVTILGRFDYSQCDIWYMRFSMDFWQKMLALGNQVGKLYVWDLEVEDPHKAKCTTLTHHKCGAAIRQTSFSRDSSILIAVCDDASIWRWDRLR
EZH2 [A738T], sequence (Q15022 whole entry partner): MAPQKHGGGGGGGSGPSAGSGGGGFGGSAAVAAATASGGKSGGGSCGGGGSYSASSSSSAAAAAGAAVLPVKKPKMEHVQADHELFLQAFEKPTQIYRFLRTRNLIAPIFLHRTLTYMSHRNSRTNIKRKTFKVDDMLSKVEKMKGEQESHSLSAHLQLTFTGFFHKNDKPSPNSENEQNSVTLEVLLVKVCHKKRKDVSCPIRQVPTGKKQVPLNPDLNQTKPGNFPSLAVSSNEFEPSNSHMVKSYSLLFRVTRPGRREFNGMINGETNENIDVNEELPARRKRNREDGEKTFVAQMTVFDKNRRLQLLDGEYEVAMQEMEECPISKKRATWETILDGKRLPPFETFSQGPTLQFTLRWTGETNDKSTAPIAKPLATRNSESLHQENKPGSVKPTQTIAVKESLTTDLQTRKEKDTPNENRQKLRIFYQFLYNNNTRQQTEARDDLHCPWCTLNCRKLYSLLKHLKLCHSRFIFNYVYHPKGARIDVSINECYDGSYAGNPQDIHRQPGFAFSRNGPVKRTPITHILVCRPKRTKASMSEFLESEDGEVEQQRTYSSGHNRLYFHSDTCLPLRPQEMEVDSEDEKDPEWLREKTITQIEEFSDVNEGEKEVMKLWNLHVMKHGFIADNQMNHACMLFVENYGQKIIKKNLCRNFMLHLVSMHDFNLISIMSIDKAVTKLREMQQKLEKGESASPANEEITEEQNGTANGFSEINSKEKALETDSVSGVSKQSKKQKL
EZH2 [A738T], sequence (Q09028 whole entry partner): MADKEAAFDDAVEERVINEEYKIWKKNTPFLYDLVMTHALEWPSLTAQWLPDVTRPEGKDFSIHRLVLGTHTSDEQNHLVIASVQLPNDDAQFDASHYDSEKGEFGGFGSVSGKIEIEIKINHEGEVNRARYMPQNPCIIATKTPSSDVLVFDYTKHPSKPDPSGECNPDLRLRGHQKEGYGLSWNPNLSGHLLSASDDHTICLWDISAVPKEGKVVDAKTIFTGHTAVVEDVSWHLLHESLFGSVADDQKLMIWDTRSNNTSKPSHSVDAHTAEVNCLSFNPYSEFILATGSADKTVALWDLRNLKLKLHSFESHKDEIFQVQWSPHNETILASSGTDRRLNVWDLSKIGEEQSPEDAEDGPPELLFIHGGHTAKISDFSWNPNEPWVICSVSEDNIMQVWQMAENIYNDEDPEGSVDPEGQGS
Description: as §1, §2

PRMT6 = PRMT6 (Homo sapiens, UniProt Q96LA8); assay: Off-target methyltransferase profiling (MTase-Glo); type: biochemical
PRMT6, sequence (Q96LA8 whole entry, species assumed): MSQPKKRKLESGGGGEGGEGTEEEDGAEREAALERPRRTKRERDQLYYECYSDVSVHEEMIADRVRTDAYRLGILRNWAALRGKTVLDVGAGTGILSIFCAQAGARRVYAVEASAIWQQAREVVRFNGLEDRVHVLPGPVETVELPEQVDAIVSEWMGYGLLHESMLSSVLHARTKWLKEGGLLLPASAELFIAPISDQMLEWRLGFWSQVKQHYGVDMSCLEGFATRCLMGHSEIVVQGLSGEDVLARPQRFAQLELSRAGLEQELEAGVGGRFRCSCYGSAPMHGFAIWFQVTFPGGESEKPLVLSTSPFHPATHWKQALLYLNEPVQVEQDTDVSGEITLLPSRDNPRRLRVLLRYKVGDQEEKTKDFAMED
Description: as §1, §2

PRMT1 = PRMT1 (Homo sapiens, UniProt Q99873); assay: Off-target methyltransferase profiling (MTase-Glo); type: biochemical
PRMT1, sequence (Q99873 whole entry, species assumed): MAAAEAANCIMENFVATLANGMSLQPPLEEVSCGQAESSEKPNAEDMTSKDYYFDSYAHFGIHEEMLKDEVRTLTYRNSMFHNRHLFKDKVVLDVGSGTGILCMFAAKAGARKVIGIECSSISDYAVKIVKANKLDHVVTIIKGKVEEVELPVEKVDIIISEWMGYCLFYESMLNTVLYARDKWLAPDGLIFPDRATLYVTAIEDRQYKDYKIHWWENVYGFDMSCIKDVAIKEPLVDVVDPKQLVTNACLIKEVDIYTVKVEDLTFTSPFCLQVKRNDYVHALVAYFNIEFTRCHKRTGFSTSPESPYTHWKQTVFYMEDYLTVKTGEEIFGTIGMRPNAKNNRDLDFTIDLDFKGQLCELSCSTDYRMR
Description: as §1, §2

SUV39H1 = SUV39H1 (Homo sapiens, UniProt O43463); assay: Off-target methyltransferase profiling (MTase-Glo); type: biochemical
SUV39H1, sequence (O43463 whole entry, species assumed): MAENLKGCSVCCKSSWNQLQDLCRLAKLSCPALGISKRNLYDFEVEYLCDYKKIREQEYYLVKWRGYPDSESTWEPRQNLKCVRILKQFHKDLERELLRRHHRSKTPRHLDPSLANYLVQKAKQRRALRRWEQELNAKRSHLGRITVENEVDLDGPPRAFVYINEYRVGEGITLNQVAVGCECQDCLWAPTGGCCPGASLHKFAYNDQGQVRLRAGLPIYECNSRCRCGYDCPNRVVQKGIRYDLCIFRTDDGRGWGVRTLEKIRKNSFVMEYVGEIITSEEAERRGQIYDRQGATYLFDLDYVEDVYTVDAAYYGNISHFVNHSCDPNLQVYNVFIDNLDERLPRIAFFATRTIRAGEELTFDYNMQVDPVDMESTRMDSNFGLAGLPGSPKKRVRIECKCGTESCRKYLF
Description: as §1, §2

[2] = system: MITF ubiquitination mediated by PIAS3 and METTL10; assay: In vitro ubiquitination assay with purified Flag-MITF; type: biochemical; settings: 20 µM
Description: For the in vitro Sumoylation assay, bacteria‐purified GST‐PIAS3 and HEK293T‐purified MITF were incubated with SAE1, UBC9 in reaction buffer according to the manufacturer's instructions at 37 °C for 2 h. For the in vitro ubiquitination assay, purified His‐METTL10, GST‐PIAS3, Flag‐MITF, SAE1, and UBC9 proteins were incubated with ubiquitin, UBE1, UBE2B, and RNF4 in reaction buffer according to the manufacturer's instructions at 37 °C for 2 h. All the samples were subjected to immunoprecipitation and subsequently boiled in SDS‐PAGE loading buffer for immunoblotting.

T1 sequence (Q5JPI9 1-291 isoform Q5JPI9-1): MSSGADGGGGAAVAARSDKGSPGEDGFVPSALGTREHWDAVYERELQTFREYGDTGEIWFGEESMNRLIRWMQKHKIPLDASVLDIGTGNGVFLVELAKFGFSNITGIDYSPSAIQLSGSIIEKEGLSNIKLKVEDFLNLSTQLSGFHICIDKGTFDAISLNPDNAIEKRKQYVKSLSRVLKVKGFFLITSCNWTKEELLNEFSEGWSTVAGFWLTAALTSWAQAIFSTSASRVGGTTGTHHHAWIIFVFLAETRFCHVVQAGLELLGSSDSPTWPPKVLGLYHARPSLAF

SMILES: Cc1ccc(Nc2ncc3c(n2)N(C)C(=O)N(c2cccc(N)c2)C3)cn1 [LZQ-02-023-01, Three‐(3‐aminophenyl)‐1‐methyl‐7‐((6‐methylpyridin‐3‐yl)amino)‐3,4‐dihydropyrimido [4,5‐d] pyrimidin‐2 (1H)‐one]
- Structure-activity relationship, rank among structural analogs (METTL10; METTL10 activity toward GST-PIAS3): most potent inhibitor among its structural analogs
- Rank of potency among the 22 hit compounds (METTL10; METTL10 activity toward PIAS3): strongest potency
- IC50 (METTL10; MTase-Glo, bacteria-purified GST-PIAS3 substrate, read-out: IC50, inhibition of METTL10 activity toward PIAS3): 11.8 µM
- Pathologic grade of lesions and proliferation (H&E, Ki-67) [1]: lower pathologic grade lesions and proliferation
- Tumor burden and progression [1]: significantly reduced tumor burden and progression
- IC50 (G9A): 39.1 µM
- IC50 (EZH2 [A738T]): 7.47 µM
- IC50 (PRMT6): 11 µM
- IC50 (PRMT1): 19.7 µM
- IC50 (SUV39H1): 18.6 µM
- PIAS3-mediated ubiquitination and degradation of MITF, cell-free system [2]: significantly promoted
